Results taken from patent publication US20240081300A1, “ADRENERGIC MECHANISMS OF AUDIOGENIC SEIZURE-INDUCED DEATH IN MOUSE MODEL OF SCN8A ENCEPHALOPATHY” (University of Virginia Patent Foundation, priority 2021, published 2024).
“Also recorded” adds a separate entry of the source.

Legend:
[1] = system: adult D/+ mice (Scn8a N1768D); test: Audiogenic seizure survival in adult D/+ mice after adrenergic receptor inhibition; format: in vivo, mouse; details: 10 mg/kg sotalol i.p. 15 minutes prior to audiogenic seizure stimulation
Protocol: (§1) Audiogenic seizure assessment. To test for audiogenic seizures mice were taken from their home cage and transferred to a clean test cage where they were allowed to acclimate for ˜20 seconds before the onset of the acoustic stimulus. Similar to a method described previously (Martin et al., 2020), a sonicator (Branson 200 ultrasonic cleaner) was used to produce the audiogenic stimulus directly adjacent to the test cage.
(§2) Audiogenic seizures were recorded using a laptop webcam. Duration of seizure phases were analyzed by taking the time in seconds that the mouse spent in each of the phases: a wild-running phase characterized by fast circular running throughout the cage, a tonic phase characterized by hindlimb extension and muscle rigidity, a clonic phase typified by myoclonic jerking of the hindlimbs, and recovery exemplified when the mouse ceased myoclonic jerking and righted itself. In cases where death occurred, the end of the tonic phase was apparent at the point of hindlimb muscle relaxation.
(§3) For recording of only breathing in pharmacological experiments, non-implanted mice were placed in the chambers immediately after injection of pharmacological agents. Stimulation of audiogenic seizures and recording of breathing were performed as described above.
Mechanical ventilation. […]

[2] = system: maximal electroshock seizures; details: intracerebroventricular injection (Kruse et al., 2019); cited from earlier work
[3] = system: P20-21 D/+ mice (Scn8a N1768D); test: Audiogenic seizure-induced death in P20-21 D/+ mice (adrenergic agonists, adrenergic blockade with mechanical ventilation); format: in vivo, mouse; details: for postictal breathing recovery (plethysmography): 3 mg/kg phenylephrine i.p. 1 minute prior
Protocol: as §1, §2, §3
Mechanical ventilation. For the mechanical ventilation of P20-21 D/+ mice during an audiogenic seizure, we quickly placed a custom-made 3 mL pipet which fit snuggly over the mouse's nose and mouth and provided regular pulses of air (˜1 mL at 2 Hz). The ventilation was terminated after the mouse initiated gasping behavior or 20 s after the animal experienced sudden death.
Adrenergic receptor pharmacology. All chemicals were purchased from Sigma Aldrich and were either of pharmaceutical grade or were sterile filtered prior to injection. Injections were given intraperitoneal in a volume of 50-100 ul sterile saline per […] of mouse weight (e.g. 0.1 mL for a […] adult mouse). […] Injection of 50-100 ul sterile saline per […] of mouse weight was used as control.

[4] = system: DBA1 mice; details: intracerebroventricular injection (Zhao et al., 2017); cited from earlier work

Question: For CC(C)NCC(O)c1ccc(NS(C)(=O)=O)cc1 (stereo not shown) [sotalol], which “survival after audiogenic seizure (mice surviving of mice tested)” value (“survival … (mice surviving of mice tested)” below) [1] is on record?
Answer: 12 out of 12 and had no affect on death rate

Question: Which “prevention of death from maximal electroshock seizures” value [2] does the source give for CNC[C@H](O)c1cccc(O)c1 [phenylephrine, 3-[(1R)-1-hydroxy-2-(methylamino)ethyl]phenol] here?
Answer: prevents death

Question: What about the “survival … (mice surviving of mice tested)” value ([3]; 3 mg/kg phenylephrine i.p. 1 minute prior to audiogenic seizure stimulation, 3 mg/kg) of the same molecule?
Answer: 7 out of 8 and rescued death

Question: What about the “survival … (mice surviving of mice tested)” value ([3]; 3 mg/kg phenylephrine i.p. 1 minute prior to audiogenic seizure stimulation, listed as PE, 3 mg/kg) of the same molecule?
Answer: significantly elevated rates of survival

Question: And the “postictal breathing recovery (plethysmography)” value ([3]; 3 mg/kg)?
Answer: promoted postictal breathing recovery

Question: What about the “postictal breathing recovery (plethysmography)” value ([3]; listed as PE, 3 mg/kg) of the same molecule?
Answer: breathing also ceased during the tonic phase but recovered

Question: For CNCC[C@@H](Oc1ccccc1C)c1ccccc1 [atomoxetine], which “prevention of death from audiogenic seizures” value [4] is on record?
Answer: prevents death

Question: For NC[C@H](O)c1ccc(O)c(O)c1 [NE, 4-[(1R)-2-amino-1-hydroxyethyl]benzene-1,2-diol], which “breathing recovery after tonic phase (plethysmography)” value ([3]; 2 mg/kg norepinephrine i.p. 1 minute prior) is on record?
Answer: resulted in breathing recovery

Question: What about the “survival … (mice surviving of mice tested)” value ([3]; 2 mg/kg norepinephrine i.p. 1 minute prior to audiogenic seizure stimulation, saline 3 of 13, 2 mg/kg) of the same molecule?
Answer: 10 of 13 and significantly elevated rates of survival

Question: For CNC[C@H](O)c1ccc(O)c(O)c1 [epinephrine], which “survival after audiogenic seizure (mice rescued of mice tested)” value ([3]; 2 mg/kg epinephrine i.p. 1 minute prior to audiogenic seizure stimulation, 2 mg/kg) is on record?
Answer: one of the five; also recorded: did not seem to result in rescue
